# According to US20070037783A1, “Migrastatin analogs and uses thereof” (priority 2003, published 2007):
# Tests used:
# [1] = test system: 4T1 mouse breast tumor cells; experiment: Wound-healing assay with 4T1 cells (FIG. 6); type: cell-based; settings: with serum; 200 μM; overnight
# From the text: In the wound healing assay, standard scratches (i.e., wounds) were made through a confluent 4T1 cell layer. In the absence of serum, cells would not migrate across the empty space created by application of the scratch. Upon addition of serum containing migration-enabling factors, migration of 4T1 cells across the scratch was induced. Exposure to these cells to inventive compounds allowed the evaluation of the cell migration inhibitory activity of these compounds.
# Wound-Healing Assay (See FIG. 6). 4T1 mouse breast tumor cells in RPMI-1640 medium containing 10% fetal bovine serum (FBS) were seeded into wells of 24-multiwell plates (Becton-Dickinson). After cells grew to confluence, wounds were made with sterile pipette tips. Cells were washed with Phosphate Buffered Saline (PBS) and refreshed with growth medium containing different concentrations of chemical compounds. After overnight incubation at 37° C., cells were fixed and photographed.
# [2] = test system: 4T1 mouse breast tumor cells; experiment: Boyden chamber cell migration assay with 4T1 tumor cells; type: cell-based; settings: chamber cell migration, 6-8 h; average of three experiments; read-out: IC50 (4T1 tumor cells)
# Experimental: The biological evaluation of the compounds (in terms of their ability to inhibit cell migration) was accomplished in a Boyden chamber cell migration assay. In this assay, mouse breast tumor cells (4T1 cells) or endothelial cells (HUVECs) are seeded on the upper chamber of a transwell insert. Growth factor-containing serum is added to the lower chamber.
# Chamber Cell Migration Assay (Tables 4 and 6): Cell migrations were assayed with Boyden chambers [8.0 μm pore size, polyethylene terephthalate membrane, FALCON cell culture insert (Becton-Dickinson)]. 4T1 mouse breast tumor cells or HUVECs were trypsinized and counted. 300 μl of 5-10×10^4 cells in serum-free medium was added to the upper chamber and 500 μl of medium with 10% fetal bovine serum (FBS) was added to the lower chamber. […] Cells on the inside of the transwell inserts were removed with a cotton swab, and cells on the underside of the insert were fixed and stained. Photographs of three random regions were taken and the number of cells was counted to calculate the average number of cells that have transmigrated.
# 4T1 tumor cells = experiment: Cell proliferation assay (MTT); settings: MTT, 48 h; up to 20 μM
# Experimental: Cell Proliferation Assay: 4×10^4 of 4T1 tumor cells in RPMI-1640 medium containing 10% FBS were seeded into wells of 96-multiwell plates (Becton-Dickinson) in the presence or absence of chemical compounds and then incubated at 37° C. for 48 h. An MTT kit (Cell Proliferation Kit I, Roche) (a colorimetric assay) was used to quantify cell proliferation and viability. The number of living cells, thus the total metabolic activity, directly correlates to the amount of purple formazan crystals formed (monitored by the absorbance).
# [3] = Mouse plasma stability study (HPLC); type: in vitro ADME
# Experimental: Mouse Plasma Stability Studies (Table 5): HPLC conditions: The sample is injected and separated using an Inertsil ODS3 6u 3×150 mm column with a mobile phase of MeCN and water (50% for migrastatin) at a flow of 0.4 mL/min, monitored at 220 nm at 0.02 AUFS (the retention time for migrastatin is ca. 4 min, the identity of this peak was confirmed by mass spectral analysis). Incubation and sample preparation conditions: A solution (ca. 30 mM) of chemical compound (Table 5) in DMSO is prepared. 2 μL of the solution is added to a mixture containing 200 μL of mouse plasma and 800 μL of PBS. The resulting solution is put into a water bath at 37° C., and 100 μL of sample is withdrawn at 10, 20, 30, 45, and 60 min. The precipitate is removed by centrifugation and 20 μL of the supernatant is injected onto the HPLC.
# [4] = test system: HUVECs (human umbilical vein endothelial cells); experiment: Boyden chamber cell migration assay with HUVECs; type: cell-based; settings: chamber cell migration; average of three experiments; read-out: IC50 (HUVEC)
# Experimental: Chamber Cell Migration Assay (Tables 4 and 6): Cell migrations were assayed with Boyden chambers [8.0 μm pore size, polyethylene terephthalate membrane, FALCON cell culture insert (Becton-Dickinson)]. 4T1 mouse breast tumor cells or HUVECs were trypsinized and counted. 300 μl of 5-10×10^4 cells in serum-free medium was added to the upper chamber and 500 μl of medium with 10% fetal bovine serum (FBS) was added to the lower chamber. The transwells were incubated for 6-8 h at 37° C. with different concentrations of chemical compound in both upper and lower chamber. Cells on the inside of the transwell inserts were removed with a cotton swab, and cells on the underside of the insert were fixed and stained. Photographs of three random regions were taken and the number of cells was counted to calculate the average number of cells that have transmigrated.
# [5] = test system: 4T1 tumor lung metastasis; experiment: 4T1 tumor lung metastasis in syngeneic mice (6-thioguanine clonogenic assay); type: in vivo, BALB/c mice; settings: for lung metastasis colonies: lungs Day 28, mean and standard deviation
# From the text: Inhibition of metastasis of mouse breast tumors by migrastatin alogs in mice. 4T1 mouse breast tumor cell line was isolated from a single spontaneously arising mammary tumor from a BALB/BfC3H mouse (MMTV+).^62 The 4T1 tumor closely mimics human breast cancer in its anatomical site, immunogenecity, growth characteristics, and metastatic properties.^63 From the mammary gland, 4T1 tumor spontaneously metastasizes to a variety of target organs including the lung, bone, brain, and liver through primarily a hematogenous rout.^64
# To assess the efficacy of therapeutic application of migrastatin analogs in the 4T1 murine mammary carcinoma models, we administered migrastatin analogs (macroketone and macrolactam) to BALB/c mice carrying the 4T1 tumors.
# (§1) Female BALB/c mice (6-8 week old) were purchased from the Jackson Laboratory (Bar Harbor, Me.). All mice were housed at the Weill Medical College of Cornell University Animal Facilities in accordance with the Principles of Animal Care (NIH publication no. 85-23, revised 1985). 4T1 tumor cells (1×10^5) were injected subcutaneously into the abdominal mammary gland area of mice in 0.1 ml of a single-cell suspension in phosphate buffered saline (PBS) on Day 0. The dosage of tumor implantation was empirically determined to give rise to tumor of ˜10 mm in diameter in untreated wild type mice in 21-23 days. On Day 7, when the tumors averaged in size ˜4-5 mm in diameter, migrastatin analogs or control PBS saline were given every day by intraperitoneal injection at 10 mg/kg or 20 mg/kg per mouse until Day 25. On Day 28, the mice were sacrificed. This regiment of migrastatin analogs was well tolerated with no signs of overt toxicity. Every group included five mice. Primary tumors were measured using electronic calipers on the day when the mice were sacrificed. Tumor size was the square root of the product of two perpendicular diameters. Numbers of metastatic 4T1 cells in lung were determined by the clonogenic assay.^63 In brief, lungs were removed from each mouse on Day 28, finely minced and digested in 5 ml of enzyme cocktail containing 1× PBS and 1 mg/ml collagenase type IV for 2 hours at 37° C. on a platform rocker. After incubation, samples were filtered through 70 uM nylon cell strainers and washed twice with PBS. Resulting cells were suspended and plated serially diluted in 10 cm tissue culture dishes in medium RPMI1640 containing 60 uM thioguanine for clonogenic growth. 6-Thioguanine-resistant tumor cells formed foci after 14 days, at which time they were fixed with methanol and stained with 0.03% methylene blue for counting.
# Treatment 4T1 tumor lung metaotmis in smgencie mice with Kigrastatin analogs (See, FIG. 4). 4T1 tumor cells (10^5) were injected s.c. in the abdominal mammary gland with 0.1 ml of a single-cell suspension. Macroketone or macrolactam at 10 mg/kg or 20 mg/kg was given i.p. on Day 7 when the tumor size was about 5 mm in diameter, and everyday until Day 25. On Day 28, the mice were sacrificed. Each group comprised five mice. Lung metastasis was measured by the 6-thiogunine clonogenic assay. The mean and standard deviation are presented. In the control group (daily PBS injection), there were 61300±18900 colonies.
# 4T1 tumors = experiment: Effect on 4T1 primary tumor growth in mice; type: in vivo, BALB/c mice; settings: 10 mg/kg i.p. daily Day 7-25; tumors measured Day 28
# Experimental: as §1, with “This regiment of migrastatin analogs was well tolerated with no signs of overt toxicity. Every group included five mice.” left out, “Tumor size was the square root of the product of two perpendicular diameters.” left out, “After incubation, samples were filtered through 70 uM nylon cell strainers and washed twice with PBS. Resulting cells were suspended and plated serially diluted in 10 cm tissue culture dishes in medium RPMI1640 containing 60 uM thioguanine for clonogenic growth. 6-Thioguanine-resistant tumor cells formed foci after 14 days, at which time they were fixed with methanol and stained with 0.03% methylene blue for counting.” left out
# Effect of migrastatin analogs on 4T1 tumor cell growth (See, FIG. 5). […] On Day 28, primary tumors were measured using electronic calipers. […]
SMILES,"inhibition of 4T1 cell migration across the scratch, in words [1]",IC50 [2] [nM],"cytotoxic or anti-proliferative effects on 4T1 cells, in words (4T1 tumor cells)","stability (t1/2, mouse plasma) ([3]; mouse plasma/PBS, 37° C., sampled up to 60 min) [min]","stability (mouse plasma), in words ([3]; stable = intensity of HPLC signal unchanged over 60 min of incubation)",IC50 [4] [nM],inhibition of lung metastasis ([5]; 10 mg/kg i.p. daily Day 7-25) [%],lung metastasis colonies ([5]; 10 mg/kg i.p. daily Day 7-25) [colonies],inhibition of lung metastasis ([5]; 20 mg/kg i.p. daily Day 7-25) [%],lung metastasis colonies ([5]; 20 mg/kg i.p. daily Day 7-25) [colonies],"effect on growth of 4T1 primary tumors, in words (4T1 tumors)"
"COC1C=CCCCCC(=O)OCC(C)=CC(C)C1O (stereo not shown) [macrolactone (48), Macrolactone]",almost completely inhibited cell migration across the scratch,24,did not have any cytotoxic or anti-proliferative effects up to 20 μM,<5,hydrolyzed rapidly,125,–,–,–,–,–
"COC1C=CCCCCC(=O)CCC(C)=CC(C)C1O (stereo not shown) [macroketone (60), Macroketone]",–,100,–,–,–,12000,~94,3875±2525,~99,650±575,minor effect on tumor growth
